In US7592160B2, “Processes for producing isomaltose and isomaltitol and use thereof” (Kabushiki Kaisha Hayashibara Seibutsu Kagaku Kenkyujo, priority 2001, dated 2009):

What was measured:
[1] = tested on: α-isomaltosylglucosaccharide-forming enzyme; experiment: Transfer-acceptor specificity, enzyme of A19 strain; type: biochemical, Arthrobacter globiformis A19 strain; settings: acceptor 1.6%, PINE-DEX #100 donor 4%, one unit/g donor, 30° C., pH 8.4, 24 hours
Method: (§1) Using various saccharides, it was tested whether the saccharides were used as transferring-acceptors for α-isomaltosylglucosaccharide-forming enzyme. A solution of D-glucose, D-xylose, L-xylose, D-galactose, D-fructose, D-mannose, D-arabinose, D-fucose, D-psicose, L-sorbose, L-rhamnose, methyl-α-glucopyranoside, methyl-β-glucopyranoside, N-acetyl-glucosamine, sorbitol, α,α-trehalose, isomaltose, isomaltotriose, cellobiose, gentibiose, glycerol, maltitol, lactose, sucrose, α-cyclodextrin, β-cyclodextrin, γ-cyclodextrin, or L-ascorbic acid was prepared. To each solution with a saccharide concentration of 1.6% was added “PINE-DEX #100”, a partial starch hydrolyzate, as a saccharide donor, to give a concentration of 4%, and admixed with one unit/g saccharide donor, d.s.b., of either of purified specimens of α-isomaltosylglucosaccharide-forming enzyme from Bacillus globisporus C9 strain obtained by the method in Experiment 4-2, Bacillus globisporus C11 strain obtained by the method in Experiment 7-2, Bacillus globisporus N75 strain obtained by the method in Experiment 11-2, or Arthrobacter globiformis A19 strain obtained by the method in Experiment 15-2, and incubated at 30° C. and pH 6.0 for 24 hours, except that pH 8.4 was used for the enzyme from Arthrobacter globiformis A19 strain. The reaction mixtures of the post-enzymatic reactions were analyzed on gas chromatography (abbreviated as “GLC” hereinafter) for monosaccharides and disaccharides as acceptors, and on HPLC for trisaccharides as acceptors to confirm whether these saccharides could be used as the transfer acceptors of the above enzymes. In the case of performing GLC, the following apparatuses and conditions were used: GLC apparatus, “GC-16A” commercialized by Shimadzu Corporation, Tokyo, Japan; column, a stainless-steel column, 3 mm in diameter and 2 m in length, packed with 2% “SILICONE OV-17/CHROMOSOLV W”, commercialized by GL Sciences Inc., Tokyo, Japan; carrier gas, nitrogen gas at a flow rate of 40 ml/min under temperature conditions of increasing from 160° C. to 320° C. at an increasing temperature rate of 7.5° C./min; and detection, a hydrogen flame ionization detector. In the case of performing HPLC analysis, the following apparatuses and conditions were used: HPLC apparatus, “CCPD” commercialized by Tosoh Corporation, Tokyo, Japan; column, “ODS-AQ-303” commercialized by YMC Co., Ltd., Tokyo, Japan; eluent, water at a flow rate of 0.5 ml/min; and detection, a differential refractometer.

[2] = tested on: α-isomaltosylglucosaccharide-forming enzyme; experiment: Transfer-acceptor specificity, enzyme of C9 strain; type: biochemical, Bacillus globisporus C9 strain; parameters: key: −: no saccharide-transferred product was detected through transfer reaction to acceptor; ±: a saccharide-transferred product was detected in an amount less than one percent through transfer reaction to acceptor; +: a saccharide-transferred product was detected in an amount over one percent but less than 10% through transfer reaction to acceptor; ++: a saccharide-transferred product was detected in an amount over ten percent through transfer reaction to acceptor; settings: acceptor 1.6%, PINE-DEX #100 donor 4%, one unit/g donor, 30° C., pH 6.0, 24 hours
Method: as §1

[3] = tested on: α-isomaltosylglucosaccharide-forming enzyme; experiment: Transfer-acceptor specificity, enzyme of N75 strain; type: biochemical, Bacillus globisporus N75 strain; parameters: key: −: no saccharide-transferred product was detected through transfer reaction to acceptor; ±: a saccharide-transferred product was detected in an amount less than one percent through transfer reaction to acceptor; +: a saccharide-transferred product was detected in an amount over one percent but less than 10% through transfer reaction to acceptor; ++: a saccharide-transferred product was detected in an amount over ten percent through transfer reaction to acceptor; settings: acceptor 1.6%, PINE-DEX #100 donor 4%, one unit/g donor, 30° C., pH 6.0, 24 hours
Method: as §1

[4] = tested on: α-isomaltosylglucosaccharide-forming enzyme; experiment: Transfer-acceptor specificity, enzyme of C11 strain; type: biochemical, Bacillus globisporus C11 strain; parameters: key: −: no saccharide-transferred product was detected through transfer reaction to acceptor; ±: a saccharide-transferred product was detected in an amount less than one percent through transfer reaction to acceptor; +: a saccharide-transferred product was detected in an amount over one percent but less than 10% through transfer reaction to acceptor; ++: a saccharide-transferred product was detected in an amount over ten percent through transfer reaction to acceptor; settings: acceptor 1.6%, PINE-DEX #100 donor 4%, one unit/g donor, 30° C., pH 6.0, 24 hours
Method: as §1

SMILES | Product of transferring reaction, Enzyme of A19 strain [1] | Product of transferring reaction, Enzyme of C9 strain [2] | Product of transferring reaction, Enzyme of N75 strain [3] | Product of transferring reaction, Enzyme of C11 strain [4]
O=C[C@@H](O)[C@H](O)[C@H](O)CO [D-Arabinose, D-arabinose] | ± (a saccharide-transferred product was detected in an amount less than one percent through transfer reaction to acceptor) | ± (a saccharide-transferred product was detected in an amount less than one percent through transfer reaction to acceptor) | ± (a saccharide-transferred product was detected in an amount less than one percent through transfer reaction to acceptor) | ± (a saccharide-transferred product was detected in an amount less than one percent through transfer reaction to acceptor)
O=C(CO)[C@@H](O)[C@H](O)[C@H](O)CO [D-Fructose, D-fructose] | + (a saccharide-transferred product was detected in an amount over one percent but less than 10% through transfer reaction to acceptor) | + (a saccharide-transferred product was detected in an amount over one percent but less than 10% through transfer reaction to acceptor) | + (a saccharide-transferred product was detected in an amount over one percent but less than 10% through transfer reaction to acceptor) | + (a saccharide-transferred product was detected in an amount over one percent but less than 10% through transfer reaction to acceptor)
C[C@@H](O)[C@H](O)[C@H](O)[C@@H](O)C=O [D-Fucose, D-fucose] | ± (a saccharide-transferred product was detected in an amount less than one percent through transfer reaction to acceptor) | + (a saccharide-transferred product was detected in an amount over one percent but less than 10% through transfer reaction to acceptor) | + (a saccharide-transferred product was detected in an amount over one percent but less than 10% through transfer reaction to acceptor) | + (a saccharide-transferred product was detected in an amount over one percent but less than 10% through transfer reaction to acceptor)
O=C[C@H](O)[C@@H](O)[C@@H](O)[C@H](O)CO [D-Galactose, D-galactose] | ± (a saccharide-transferred product was detected in an amount less than one percent through transfer reaction to acceptor) | + (a saccharide-transferred product was detected in an amount over one percent but less than 10% through transfer reaction to acceptor) | + (a saccharide-transferred product was detected in an amount over one percent but less than 10% through transfer reaction to acceptor) | + (a saccharide-transferred product was detected in an amount over one percent but less than 10% through transfer reaction to acceptor)
O=C[C@H](O)[C@@H](O)[C@H](O)[C@H](O)CO [D-Glucose, D-glucose] | + (a saccharide-transferred product was detected in an amount over one percent but less than 10% through transfer reaction to acceptor) | + (a saccharide-transferred product was detected in an amount over one percent but less than 10% through transfer reaction to acceptor) | + (a saccharide-transferred product was detected in an amount over one percent but less than 10% through transfer reaction to acceptor) | + (a saccharide-transferred product was detected in an amount over one percent but less than 10% through transfer reaction to acceptor)
O=C[C@@H](O)[C@@H](O)[C@H](O)[C@H](O)CO [D-Mannose, D-mannose] | ± (a saccharide-transferred product was detected in an amount less than one percent through transfer reaction to acceptor) | − | − | −
O=C(CO)[C@H](O)[C@H](O)[C@H](O)CO [D-Psicose, D-psicose] | + (a saccharide-transferred product was detected in an amount over one percent but less than 10% through transfer reaction to acceptor) | + (a saccharide-transferred product was detected in an amount over one percent but less than 10% through transfer reaction to acceptor) | + (a saccharide-transferred product was detected in an amount over one percent but less than 10% through transfer reaction to acceptor) | + (a saccharide-transferred product was detected in an amount over one percent but less than 10% through transfer reaction to acceptor)
O=C[C@H](O)[C@@H](O)[C@H](O)CO [D-Xylose, D-xylose] | + (a saccharide-transferred product was detected in an amount over one percent but less than 10% through transfer reaction to acceptor) | ++ (a saccharide-transferred product was detected in an amount over ten percent through transfer reaction to acceptor) | ++ (a saccharide-transferred product was detected in an amount over ten percent through transfer reaction to acceptor) | ++ (a saccharide-transferred product was detected in an amount over ten percent through transfer reaction to acceptor)
OCC(O)CO [Glycerol, glycerol] | + (a saccharide-transferred product was detected in an amount over one percent but less than 10% through transfer reaction to acceptor) | + (a saccharide-transferred product was detected in an amount over one percent but less than 10% through transfer reaction to acceptor) | + (a saccharide-transferred product was detected in an amount over one percent but less than 10% through transfer reaction to acceptor) | + (a saccharide-transferred product was detected in an amount over one percent but less than 10% through transfer reaction to acceptor)
O=C1O[C@H]([C@@H](O)CO)C(O)=C1O [L-Ascorbic acid, L-ascorbic acid] | + (a saccharide-transferred product was detected in an amount over one percent but less than 10% through transfer reaction to acceptor) | + (a saccharide-transferred product was detected in an amount over one percent but less than 10% through transfer reaction to acceptor) | + (a saccharide-transferred product was detected in an amount over one percent but less than 10% through transfer reaction to acceptor) | + (a saccharide-transferred product was detected in an amount over one percent but less than 10% through transfer reaction to acceptor)
